One may read the IC50 as the midpoint of a concentration-inhibition curve. A higher IC50 goes with a need for much substance.

The species entered for one assay is Cricetulus griseus. Put plainly: Evaluated for hypersensitivity factor (HF) (HF = IC50 AA8 / IC50 UV-4) values are intra experiment ratios. It is filed as functional.
Assay [1] is described as follows: Evaluated for cytotoxicity under aerobic conditions against UV4 cells using microassay. It is filed as cell-based. The settings on record: Cricetulus griseus.
Assay [2] in a line: Evaluated for cytotoxicity under aerobic conditions against AA8 cells using microassay. It is filed as cell-based. The settings on record: Cricetulus griseus, CHO-AA8.

With `CS(=O)(=O)OCCN(CCOS(C)(=O)=O)c1ccc([N+](=O)[O-])cc1`, the Ratio in the assay listed under Cricetulus griseus is greater than 1. For the same molecule, the IC50 in assay [1] came out at 0.00139 mM.

For `CS(=O)(=O)OCCN(CCOS(C)(=O)=O)c1ccccc1`, the IC50 stood at 0.0136 mM in assay [2] and 0.00059 mM in assay [1]. In addition, in the assay listed under Cricetulus griseus, the Ratio was 30.

Take `O=[N+]([O-])c1cccc(N(CCO)CCO)c1`: the IC50 in assay [2] was found to be 3.06 mM. This counts as millimolar.

In assay [2], `O=[N+]([O-])c1ccccc1N(CCO)CCO` yielded an IC50 of 7.97 mM.

As for `O=[N+]([O-])c1ccc(N(CCO)CCO)cc1`, in assay [2], half-maximal inhibition (IC50) was put at 3.2 mM.
